System: CN0375-F725-PDC KRAS spheroid viability
Assay: Anticancer human tumor CN0375-F725-PDC patient-derived colon carcinoma cell line growth inhibition [KRAS2]
Details: spheroids with HUVEC and MSC; for IC50: curve of first compound; for viability, T/C: stronger effect = lower value
Summary of the method: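 KRAS-mutant tumor cells were grown as spheroids with HUVEC endothelial cells and human MSCs as stroma. Targeted agents were tested alone and with KRAS pathway inhibitors. Doses started at or near clinical Cmax, or 10 microM, descending half-log.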

[1] = second compound 0.1 µM, first compound 0.000316 µM
[2] = second compound 0.1 µM, first compound 0.001 µM
[3] = second compound 0.1 µM, first compound 0.00316 µM
[4] = second compound 0.1 µM, first compound 0.01 µM
[5] = second compound 0.1 µM, first compound 0.0316 µM
[6] = second compound 0.1 µM, first compound 0.1 µM
[7] = second compound 0.316 µM, first compound 0.000316 µM
[8] = second compound 0.316 µM, first compound 0.001 µM
[9] = second compound 0.316 µM, first compound 0.00316 µM
[10] = second compound 0.316 µM, first compound 0.01 µM
[11] = second compound 0.316 µM, first compound 0.0316 µM
[12] = second compound 0.316 µM, first compound 0.1 µM
[13] = second compound 1 µM, first compound 0.000316 µM
[14] = second compound 1 µM, first compound 0.001 µM
[15] = second compound 1 µM, first compound 0.00316 µM
[16] = second compound 1 µM, first compound 0.01 µM
[17] = second compound 1 µM, first compound 0.0316 µM
[18] = second compound 1 µM, first compound 0.1 µM
[19] = second compound 3.16 µM, first compound 0.000316 µM
[20] = second compound 3.16 µM, first compound 0.001 µM
[21] = second compound 3.16 µM, first compound 0.00316 µM
[22] = second compound 3.16 µM, first compound 0.01 µM
[23] = second compound 3.16 µM, first compound 0.0316 µM
[24] = second compound 3.16 µM, first compound 0.1 µM
[25] = second compound 10 µM, first compound 0.000316 µM
[26] = second compound 10 µM, first compound 0.001 µM
[27] = second compound 10 µM, first compound 0.00316 µM
[28] = second compound 10 µM, first compound 0.01 µM
[29] = second compound 10 µM, first compound 0.0316 µM
[30] = second compound 10 µM, first compound 0.1 µM
[31] = second compound 0.1 µM, first compound 0.316 µM
[32] = second compound 0.1 µM, first compound 1 µM
[33] = second compound 0.1 µM, first compound 3.16 µM
[34] = second compound 0.1 µM, first compound 10 µM
[35] = second compound 0.316 µM, first compound 0.316 µM
[36] = second compound 0.316 µM, first compound 1 µM
[37] = second compound 0.316 µM, first compound 3.16 µM
[38] = second compound 0.316 µM, first compound 10 µM
[39] = second compound 1 µM, first compound 0.316 µM
[40] = second compound 1 µM, first compound 1 µM
[41] = second compound 1 µM, first compound 3.16 µM
[42] = second compound 1 µM, first compound 10 µM
[43] = second compound 3.16 µM, first compound 0.316 µM
[44] = second compound 3.16 µM, first compound 1 µM
[45] = second compound 3.16 µM, first compound 3.16 µM
[46] = second compound 3.16 µM, first compound 10 µM
[47] = second compound 10 µM, first compound 0.316 µM
[48] = second compound 10 µM, first compound 1 µM
[49] = second compound 10 µM, first compound 3.16 µM
[50] = second compound 10 µM, first compound 10 µM
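Also: spheroids exposed to agents for 7 days.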

Row | Compound | IC50 (second compound 0.1 µM) | IC50 (second compound 0.316 µM) | IC50 (second compound 1 µM) | IC50 (second compound 3.16 µM) | IC50 (second compound 10 µM) | viability, T/C [5] | viability, T/C [6] | viability, T/C [11] | viability, T/C [12] | viability, T/C [17] | viability, T/C [18] | viability, T/C [23] | viability, T/C [24] | viability, T/C [29] | viability, T/C [30] | viability, T/C [31] | viability, T/C [32] | viability, T/C [33] | viability, T/C [34] | viability, T/C [35] | also measured
1 | CC(C)n1nc(-c2ccc3oc(N)nc3c2)c2c(N)ncnc21 + CC1OCC2(CCN(c3cnc(Sc4ccnc(N)c4Cl)c(N)n3)CC2)C1N | 0.0581 µM | 0.0422 µM | 0.0331 µM | 0.0263 µM | 0.00776 µM | 54.2% | 45.7% | 54.6% | 43.2% | 51% | 40.5% | 46.9% | 37.9% | 39.9% | 33.8% |  |  |  |  |  | viability, T/C [1]: 91.6%; viability, T/C [2]: 89.6%; viability, T/C [3]: 73.9%; viability, T/C [4]: 68.6%; viability, T/C [7]: 84.5%; viability, T/C [8]: 84.9%; viability, T/C [9]: 73.1%; viability, T/C [10]: 60.7%; viability, T/C [13]: 82.5%; viability, T/C [14]: 81.7%; viability, T/C [15]: 68.6%; viability, T/C [16]: 61.5%; viability, T/C [19]: 74.6%; viability, T/C [20]: 74.3%; viability, T/C [21]: 67.5%; viability, T/C [22]: 57.3%; viability, T/C [25]: 63.8%; viability, T/C [26]: 65%; viability, T/C [27]: 56.4%; viability, T/C [28]: 47.5%
2 | COc1cc(Nc2ncc3c(n2)-c2ccc(Cl)cc2C(c2c(F)cccc2OC)=NC3)ccc1C(=O)O + CC1OCC2(CCN(c3cnc(Sc4ccnc(N)c4Cl)c(N)n3)CC2)C1N | > 10 µM | > 10 µM | > 10 µM | > 10 µM | > 10 µM | 91.5% | 90.4% | 88.8% | 86.5% | 79.9% | 81.9% | 81% | 74.6% | 66.7% | 71.4% | 85.8% | 80.5% | 84.6% | 70% | 85.6% | viability, T/C [36]: 82.1%; viability, T/C [37]: 82.7%; viability, T/C [38]: 72.5%; viability, T/C [39]: 82.2%; viability, T/C [40]: 75.9%; viability, T/C [41]: 74.7%; viability, T/C [42]: 64.7%; viability, T/C [43]: 70.3%; viability, T/C [44]: 70.6%; viability, T/C [45]: 67.9%; viability, T/C [46]: 62.8%; viability, T/C [47]: 67.2%; viability, T/C [48]: 62.6%; viability, T/C [49]: 61.6%; viability, T/C [50]: 53.6%
3 | O=C(c1cc(Cc2n[nH]c(=O)c3ccccc23)ccc1F)N1CCN(C(=O)C2CC2)CC1 + C=CC(=O)N1CCN(c2nc(=O)n(-c3c(C)ccnc3C(C)C)c3nc(-c4c(O)cccc4F)c(F)cc23)C(C)C1 | > 10 µM | > 10 µM | > 10 µM | > 10 µM | > 10 µM | 107% | 107% | 109% | 102% | 109% | 113% | 105% | 111% | 97.9% | 100% | 99.6% | 100% | 99.8% | 93.9% | 102% | viability, T/C [36]: 103%; viability, T/C [37]: 101%; viability, T/C [38]: 92.3%; viability, T/C [39]: 106%; viability, T/C [40]: 99.2%; viability, T/C [41]: 102%; viability, T/C [42]: 91.1%; viability, T/C [43]: 106%; viability, T/C [44]: 99.7%; viability, T/C [45]: 99.6%; viability, T/C [46]: 97.2%; viability, T/C [47]: 94.2%; viability, T/C [48]: 94.5%; viability, T/C [49]: 96.4%; viability, T/C [50]: 85.2%
4 | CN(C)C/C=C/C(=O)Nc1cc2c(Nc3ccc(F)c(Cl)c3)ncnc2cc1O[C@H]1CCOC1 + C=CC(=O)N1CCN(c2nc(=O)n(-c3c(C)ccnc3C(C)C)c3nc(-c4c(O)cccc4F)c(F)cc23)C(C)C1 | > 0.1 µM | > 0.1 µM | > 0.1 µM | > 0.1 µM | > 0.1 µM | 81.4% | 76% | 74.9% | 74.9% | 82.9% | 81% | 81.2% | 75.5% | 78.6% | 76.7% |  |  |  |  |  | viability, T/C [1]: 103%; viability, T/C [2]: 93.5%; viability, T/C [3]: 86.3%; viability, T/C [4]: 83.5%; viability, T/C [7]: 111%; viability, T/C [8]: 106%; viability, T/C [9]: 84.2%; viability, T/C [10]: 81.4%; viability, T/C [13]: 108%; viability, T/C [14]: 106%; viability, T/C [15]: 84.7%; viability, T/C [16]: 87%; viability, T/C [19]: 108%; viability, T/C [20]: 109%; viability, T/C [21]: 89.9%; viability, T/C [22]: 82.4%; viability, T/C [25]: 103%; viability, T/C [26]: 107%; viability, T/C [27]: 87.9%; viability, T/C [28]: 77.7%
5 | COc1cc2nccc(Oc3ccc(NC(=O)C4(C(=O)Nc5ccc(F)cc5)CC4)cc3)c2cc1OC + CC1OCC2(CCN(c3cnc(Sc4ccnc(N)c4Cl)c(N)n3)CC2)C1N | > 10 µM | 5.81 µM | 2.58 µM | 1.88 µM | 0.644 µM | 104% | 94.5% | 99.5% | 94.6% | 86.3% | 84.7% | 84.4% | 78.9% | 66.9% | 69.3% | 83.3% | 69.3% | 56.3% | 63.2% | 85.9% | viability, T/C [36]: 68.4%; viability, T/C [37]: 44.6%; viability, T/C [38]: 53.5%; viability, T/C [39]: 75.5%; viability, T/C [40]: 67.9%; viability, T/C [41]: 38.4%; viability, T/C [42]: 53.9%; viability, T/C [43]: 71.7%; viability, T/C [44]: 60.7%; viability, T/C [45]: 36.7%; viability, T/C [46]: 46.8%; viability, T/C [47]: 57.9%; viability, T/C [48]: 46.2%; viability, T/C [49]: 25.9%; viability, T/C [50]: 31.2%
